Literature values in patent US20030180387A1, “Method for increasing the antioxidative potential of selenium-containing aqueous solutions” (priority 2000, published 2003).
Read-outs that look alike come from different tables or passages of the source.

O=[Se](O)O [selenite]
Eo, standard redox potential (acidic environment): −0.740 (acidic environment) Volt | Eo, standard redox potential (basic environment): +0.366 (basic environment) Volt
